Data taken from ChEMBL document CHEMBL5233249, “Recent advancements in the development of heterocyclic anti-inflammatory agents” (Eur J Med Chem, 2020).
In brackets after ≈: the same amount, converted by molar mass.

Tests used:
[1] = Anti-inflammatory activity assessed using bovine serum albumin/egg albumin proteins assessed as protein denaturation measured at 95 degC for 20 mins by measuring turbidity by UV-Vis spectrophotometer; assay type: functional
Erythrocyte [2] = experiment: Anti-inflammatory activity in rat red blood cells assessed as stabilization of cell membrane at 500 microg/ml relative to control; assay type: functional; conditions: dose 500 µg/ml
Erythrocyte [3] = experiment: Anti-inflammatory activity in rat red blood cells assessed as stabilization of cell membrane at 200 microg/ml relative to control; assay type: functional; conditions: dose 200 µg/ml
RAW264.7 [4] = experiment: Anti-inflammatory activity in mouse RAW264.7 cells assessed as inhibition of LPS-induced NO production in macrophages; assay type: functional, cell-based
Rattus norvegicus [5] = experiment: Anti-inflammatory activity against carrageenan-induced Albino Wistar rat paw edema model assessed as inhibition of rat paw edema at 50 mg/kg, po after 3 hrs relative to control; assay type: functional; parameters: scale not given: the % may be the effect or the level left
Rattus norvegicus [6] = experiment: Anti-ulcerative activity in Carrageenan-induced Sprague-Dawley rat ulcer model assessed as inhibition of ulcer index at 10 mg/kg,po; assay type: functional
Mus musculus [7] = experiment: Anti-inflammatory activity in Carrageenan-induced paw edema mouse model assessed as inhibition of granuloma measured after 24 hrs relative to control; assay type: functional
Rattus norvegicus [8] = experiment: Anti-inflammatory activity against formalin-induced foot paw edema in Wistar rat at 5 mg/kg, po assessed as inhibition of edema measured after 4 hr relative to control; assay type: functional
Rattus norvegicus [9] = experiment: Anti-inflammatory activity against formalin-induced foot paw edema in PO dosed rat at 10 mg/kg assessed as inhibition of edema measured after 4 hr relative to control; assay type: functional
[10] = Selectivity index, ratio of IC50 for ovine COX1 to IC50 for recombinant human COX2
Rattus norvegicus [11] = experiment: Anti-inflammatory activity against Carrageenan-induced paw edema in PO dosed Wistar albino rat assessed as inhibition of edema measured after 4 hr relative to control; assay type: functional; parameters: scale not given: the % may be the effect or the level left
Rattus norvegicus [12] = experiment: Anti-inflammatory activity against Carrageenan-induced paw edema in PO dosed Wistar albino rat assessed as inhibition of edema measured after 1 hr relative to control; assay type: functional; parameters: scale not given: the % may be the effect or the level left
Rattus norvegicus [13] = experiment: Anti-inflammatory activity against Carrageenan-induced paw edema in PO dosed Wistar albino rat assessed as inhibition of edema measured after 2 hr relative to control; assay type: functional; parameters: scale not given: the % may be the effect or the level left
[14] = target: T1, Prostaglandin G/H synthase 1 (Ovis aries, UniProt P05979); experiment: Inhibition of ovine COX-1 by EIA method
T1 sequence (P05979 whole entry): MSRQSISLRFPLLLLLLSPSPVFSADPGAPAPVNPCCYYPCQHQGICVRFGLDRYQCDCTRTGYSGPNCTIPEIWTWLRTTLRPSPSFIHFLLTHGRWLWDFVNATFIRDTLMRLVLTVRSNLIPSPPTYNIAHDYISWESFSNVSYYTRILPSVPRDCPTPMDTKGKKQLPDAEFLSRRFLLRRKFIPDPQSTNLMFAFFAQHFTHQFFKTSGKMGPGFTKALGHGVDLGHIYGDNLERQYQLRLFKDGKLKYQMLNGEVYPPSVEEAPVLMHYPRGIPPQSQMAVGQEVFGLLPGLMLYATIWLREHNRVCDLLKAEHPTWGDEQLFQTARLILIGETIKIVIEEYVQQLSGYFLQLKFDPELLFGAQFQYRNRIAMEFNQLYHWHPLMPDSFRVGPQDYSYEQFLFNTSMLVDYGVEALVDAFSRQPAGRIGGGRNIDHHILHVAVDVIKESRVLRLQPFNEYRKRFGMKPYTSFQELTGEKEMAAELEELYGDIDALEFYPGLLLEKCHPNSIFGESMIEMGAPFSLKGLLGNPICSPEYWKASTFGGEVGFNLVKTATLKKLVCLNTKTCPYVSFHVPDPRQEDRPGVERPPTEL

Rattus norvegicus [15] = experiment: Anti-inflammatory activity in Carageenan-induced foot paw edema in Swiss albino rat assessed as reduction in volume of paw edema measured after 6 hr relative to control; assay type: functional; parameters: scale not given: the % may be the effect or the level left
Rattus norvegicus [16] = experiment: Anti-inflammatory activity in Carageenan-induced foot paw edema in Swiss albino rat assessed as reduction in volume of paw edema measured after 2 hr relative to control; assay type: functional; parameters: scale not given: the % may be the effect or the level left
Rattus norvegicus [17] = experiment: Anti-inflammatory activity in Carageenan-induced foot paw edema in Swiss albino rat assessed as reduction in volume of paw edema measured after 4 hr relative to control; assay type: functional; parameters: scale not given: the % may be the effect or the level left
Rattus norvegicus [18] = experiment: Anti-inflammatory activity in Carageenan-induced foot paw edema in Swiss albino rat assessed as reduction in volume of paw edema measured after 1 hr relative to control; assay type: functional; parameters: scale not given: the % may be the effect or the level left
RAW264.7 [19] = experiment: Anti-inflammatory activity in mouse RAW264.7 cells assessed as inhibition of LPS-induced NO production measured after 24 hrs; assay type: functional, cell-based; conditions: RAW264.7, 24 h
Rattus norvegicus [20] = experiment: Anti-inflammatory activity in Wistar rat assessed as reduced hind paw edema at 25 mg/kg relative to control; assay type: functional; parameters: scale not given: the % may be the effect or the level left
[21] = target: T2, Polyunsaturated fatty acid 5-lipoxygenase (Homo sapiens, UniProt P09917); experiment: Inhibition of 5-LOX (unknown origin) after 5 mins by colorimetric method
T2 sequence (P09917 whole entry): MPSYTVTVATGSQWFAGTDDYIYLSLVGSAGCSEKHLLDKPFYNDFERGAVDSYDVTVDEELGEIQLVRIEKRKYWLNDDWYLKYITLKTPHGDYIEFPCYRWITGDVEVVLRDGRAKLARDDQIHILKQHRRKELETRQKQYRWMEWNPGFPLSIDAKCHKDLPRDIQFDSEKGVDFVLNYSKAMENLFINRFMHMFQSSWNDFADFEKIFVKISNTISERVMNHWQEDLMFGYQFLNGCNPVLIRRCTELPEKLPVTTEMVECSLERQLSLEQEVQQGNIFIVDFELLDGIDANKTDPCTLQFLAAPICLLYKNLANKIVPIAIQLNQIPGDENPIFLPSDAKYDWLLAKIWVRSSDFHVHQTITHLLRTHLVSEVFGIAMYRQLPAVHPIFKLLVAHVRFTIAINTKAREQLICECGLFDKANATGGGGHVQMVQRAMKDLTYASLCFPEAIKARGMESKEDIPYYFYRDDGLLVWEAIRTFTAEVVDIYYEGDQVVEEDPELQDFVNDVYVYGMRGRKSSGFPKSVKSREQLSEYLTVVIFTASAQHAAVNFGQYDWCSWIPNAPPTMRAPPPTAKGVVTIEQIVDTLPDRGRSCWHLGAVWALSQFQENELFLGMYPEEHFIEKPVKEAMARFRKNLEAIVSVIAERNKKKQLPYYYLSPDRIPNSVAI

Mus musculus [22] = experiment: Anti-inflammatory activity against Carrageenan-induced paw edema in mouse model assessed as inhibition of edema at 100 mg/kg measured after 3 hrs relative to control; assay type: functional; parameters: scale not given: the % may be the effect or the level left
Rattus norvegicus [23] = experiment: Anti-ulcerative activity in aspirin induced Wistar rat ulcer model assessed as inhibition of ulcer index at 20 mg/kg,po; assay type: functional
Rattus norvegicus [24] = experiment: Anti-inflammatory activity against Carrageenan-induced paw edema in PO dosed Wistar albino rat assessed as inhibition of edema measured after 3 hr relative to control; assay type: functional; parameters: scale not given: the % may be the effect or the level left
Erythrocyte [25] = experiment: Anti-inflammatory activity in human red blood cells assessed as stabilization of cell membrane; assay type: functional, cell-based

## COc1ccc(-c2nn(-c3ccccc3)cc2CCC(=O)OCc2cn(-c3cccc(Cl)c3)nn2)cc1
[1]
  IC50: 60.56 µg/mL (≈ 118 µM)
Erythrocyte [2]
  Activity: 94%
Erythrocyte [3]
  Activity: 70%

## C=CC1=CN=CC2C(=O)N3CCc4c([nH]c5ccccc45)C3=CC12 (configuration not stated)
RAW264.7 [4]
  IC50: 1280 nM

## CS(=O)(=O)c1ccc(-n2cc(/C=N/Nc3ccc(S(N)(=O)=O)cc3)c(-c3ccc(Br)cc3)n2)cc1
Rattus norvegicus [5]
  Activity: 80%
Rattus norvegicus [6]
  UI: 3.77

## O=C1CSC(=S)C1NC1=NC2C(C=NN2c2ccccc2)C(=O)N1c1ccccc1 (configuration not stated)
Mus musculus [7]
  inhibition (INH): 45.6%
Rattus norvegicus [8]
  inhibition in vivo at 5 mg/kg: 85.7%

## Nc1cc(-c2ccccc2)nn1-c1nc2c(cnn2-c2ccccc2)c(=O)n1-c1ccccc1
Rattus norvegicus [9]
  inhibition in vivo at 10 mg/kg: 50%

## C[C@]12CCC(=O)C=C1CC[C@@H]1[C@@H]2[C@@H](O)C[C@@]2(C)[C@H]1CC[C@]2(O)C(=O)CO [HYDROCORTISONE]
RAW264.7 [4]
  IC50: 3260 nM

## Cc1cc(-c2ccccc2)n(-c2nc3c(cnn3-c3ccccc3)c(=O)n2-c2ccccc2)n1
[10]
  Selectivity Index: 5.44

## CC(C)(CO)NC(=O)CCCC(=O)/C=C/c1cn(-c2ccccc2)nc1-c1ccccc1
Rattus norvegicus [11]
  Activity: 30.95%
Rattus norvegicus [12]
  Activity: 40%
Rattus norvegicus [13]
  Activity: 25.56%

## O=C1NC(=O)C(=NNc2cccc(-c3nc4ccccc4[nH]3)c2)C(=O)N1
[14]
  IC50: 2760 nM

## CCCC1Nc2cc(C(=O)N/N=C/c3ccc(Cl)c(Cl)c3O)cc(C)c2N1 (configuration not stated)
Rattus norvegicus [15]
  Activity: 83.5%
Rattus norvegicus [16]
  Activity: 57.62%
Rattus norvegicus [17]
  Activity: 79.51%
Rattus norvegicus [18]
  Activity: 43.3%

## C[C@]12CC[C@H]3[C@@H](CC=C4C[C@@H](O)CC[C@@]43C)[C@@H]1CC[C@@H]2C1=NN(C(N)=S)C(c2cccc(F)c2)C1 (some centres not stated)
RAW264.7 [19]
  IC50: 860 nM

## NS(=O)(=O)c1ccc(-n2nc(C(=O)NNC(=O)c3cccc(Cl)c3)cc2-c2ccccc2)cc1
Rattus norvegicus [20]
  Activity: >60%

## O=C(O)c1ccc(CSc2nc3cc(F)c(Oc4ccc(F)cc4)cc3[nH]2)cc1
[21]
  IC50: 900 nM
Mus musculus [22]
  Activity: 66.13%

## CC(C)Cc1ccc(C(C)C(=O)O)cc1 (configuration not stated) [IBUPROFEN]
Rattus norvegicus [6]
  UI: 20.25
Mus musculus [22]
  Activity: 70.65%
Rattus norvegicus [23]
  UI: 20.25

## Cc1ccc(-c2nn(-c3ccccc3)cc2CCC(=O)OCc2cn(-c3ccc([N+](=O)[O-])cc3)nn2)cc1
[1]
  IC50: 57.24 µg/mL (≈ 113 µM)
Erythrocyte [2]
  Activity: 97%
Erythrocyte [3]
  Activity: 74%

## C=CC(CO)[C@@H]1C[C@H]2c3[nH]c4ccccc4c3CCN2C(=O)[C@H]1CO (some centres not stated)
RAW264.7 [4]
  IC50: 1180 nM

## N#CC(/N=N/c1ccc2c(c1)CCC2)=C(\N)N1CCCCC1
Rattus norvegicus [24]
  Activity: 63.95%

## Oc1ccc(Cl)cc1-c1cc(-c2cc3cc4ccccc4nc3s2)[nH]n1
Erythrocyte [25]
  EC50: 14 µg/mL (≈ 37.1 µM)
